Patent publication US11998537B2, “Substituted indole dimer compounds” (BRISTOL-MYERS SQUIBB COMPANY, priority 2018, dated 2024)
Each block holds one compound with its values, some of them ahead of it.

Tests used:
Assay type in all cases: cell-based
human TLR7 = biological target: T1, human TLR7 (Homo sapiens, UniProt Q9NYK1); experiment: TLR7 inhibition reporter assay (HEK-Blue SEAP); conditions: HEK-Blue cells overexpressing human TLR7, gardiquimod 7.5 μM, 22 hour incubation
T1 construct: host or cells: HEK-Blue cells (HEK293-derived reporter line)
T1 sequence (Q9NYK1 27-1049): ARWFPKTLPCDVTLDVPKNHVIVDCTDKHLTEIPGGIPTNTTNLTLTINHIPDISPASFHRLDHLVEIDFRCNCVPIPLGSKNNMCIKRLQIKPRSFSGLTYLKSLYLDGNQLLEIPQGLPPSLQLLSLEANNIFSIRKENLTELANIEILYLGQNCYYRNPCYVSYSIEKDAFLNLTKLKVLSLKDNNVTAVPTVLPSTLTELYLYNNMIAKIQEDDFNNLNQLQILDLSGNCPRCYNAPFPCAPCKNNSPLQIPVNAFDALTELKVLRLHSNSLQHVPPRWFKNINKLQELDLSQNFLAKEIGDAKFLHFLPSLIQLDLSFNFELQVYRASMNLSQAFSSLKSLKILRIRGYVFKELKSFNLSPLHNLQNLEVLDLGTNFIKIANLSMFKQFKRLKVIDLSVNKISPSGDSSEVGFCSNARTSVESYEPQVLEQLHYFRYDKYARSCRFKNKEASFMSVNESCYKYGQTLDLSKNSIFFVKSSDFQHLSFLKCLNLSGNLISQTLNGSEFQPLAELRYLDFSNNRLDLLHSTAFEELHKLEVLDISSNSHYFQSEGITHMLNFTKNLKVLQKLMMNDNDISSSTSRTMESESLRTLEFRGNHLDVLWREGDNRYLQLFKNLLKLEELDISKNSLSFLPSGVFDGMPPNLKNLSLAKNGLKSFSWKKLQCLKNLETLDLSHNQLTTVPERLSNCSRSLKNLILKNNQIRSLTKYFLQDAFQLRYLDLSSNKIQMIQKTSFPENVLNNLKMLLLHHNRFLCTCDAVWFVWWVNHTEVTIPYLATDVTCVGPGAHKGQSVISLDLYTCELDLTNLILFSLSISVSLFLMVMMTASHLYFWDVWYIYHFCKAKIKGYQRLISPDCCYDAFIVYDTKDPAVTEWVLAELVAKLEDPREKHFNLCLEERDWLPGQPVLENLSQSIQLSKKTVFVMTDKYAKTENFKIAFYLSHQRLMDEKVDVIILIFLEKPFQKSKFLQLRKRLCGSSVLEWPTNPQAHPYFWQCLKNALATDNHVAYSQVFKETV
Method: (§1) TLR7/8/9 Inhibition Reporter Assays
(§2) HEK-Blue™-cells (Invivogen) overexpressing human TLR7, TLR8 or TLR9 receptors were used for screening inhibitors of these receptors using an inducible SEAP (secreted embryonic alkaline phosphatase) reporter gene under the control of the IFN-β minimal promoter fused to five NF-κB and AP-1-binding sites. Briefly, cells are seeded into Greiner 384 well plates (15000 cells per well for TLR7, 20,000 for TLR8 and 25,000 for TLR9) and then treated with test compounds in DMSO to yield a final dose response concentration range of 0.05 nM-50 μM. After a 30 minute compound pre-treatment at room temperature, the cells are then stimulated with a TLR7 ligand (gardiquimod at a final concentration of 7.5 μM), TLR8 ligand (R848 at a final concentration of 15.9 μM) or TLR9 ligand (ODN2006 at a final concentration of 5 nM) to activate NF-κB and AP-1 which induce the production of SEAP. After a 22 hour incubation at 37° C., 5% CO2, SEAP levels are determined with the addition of HEK-Blue™ Detection reagent (Invivogen), a cell culture medium that allows for detection of SEAP, according to manufacturer's specifications. The percent inhibition is determined as the % reduction in the HEK-Blue signal present in wells treated with agonist plus DMSO alone compared to wells treated with a known inhibitor.

human TLR8 = biological target: T2, human TLR8 (Homo sapiens, UniProt Q9NR97); experiment: TLR8 inhibition reporter assay (HEK-Blue SEAP); conditions: HEK-Blue cells overexpressing human TLR8, R848 15.9 μM, 22 hour incubation
T2 construct: host or cells: HEK-Blue cells (HEK293-derived reporter line)
T2 sequence (Q9NR97 27-1041): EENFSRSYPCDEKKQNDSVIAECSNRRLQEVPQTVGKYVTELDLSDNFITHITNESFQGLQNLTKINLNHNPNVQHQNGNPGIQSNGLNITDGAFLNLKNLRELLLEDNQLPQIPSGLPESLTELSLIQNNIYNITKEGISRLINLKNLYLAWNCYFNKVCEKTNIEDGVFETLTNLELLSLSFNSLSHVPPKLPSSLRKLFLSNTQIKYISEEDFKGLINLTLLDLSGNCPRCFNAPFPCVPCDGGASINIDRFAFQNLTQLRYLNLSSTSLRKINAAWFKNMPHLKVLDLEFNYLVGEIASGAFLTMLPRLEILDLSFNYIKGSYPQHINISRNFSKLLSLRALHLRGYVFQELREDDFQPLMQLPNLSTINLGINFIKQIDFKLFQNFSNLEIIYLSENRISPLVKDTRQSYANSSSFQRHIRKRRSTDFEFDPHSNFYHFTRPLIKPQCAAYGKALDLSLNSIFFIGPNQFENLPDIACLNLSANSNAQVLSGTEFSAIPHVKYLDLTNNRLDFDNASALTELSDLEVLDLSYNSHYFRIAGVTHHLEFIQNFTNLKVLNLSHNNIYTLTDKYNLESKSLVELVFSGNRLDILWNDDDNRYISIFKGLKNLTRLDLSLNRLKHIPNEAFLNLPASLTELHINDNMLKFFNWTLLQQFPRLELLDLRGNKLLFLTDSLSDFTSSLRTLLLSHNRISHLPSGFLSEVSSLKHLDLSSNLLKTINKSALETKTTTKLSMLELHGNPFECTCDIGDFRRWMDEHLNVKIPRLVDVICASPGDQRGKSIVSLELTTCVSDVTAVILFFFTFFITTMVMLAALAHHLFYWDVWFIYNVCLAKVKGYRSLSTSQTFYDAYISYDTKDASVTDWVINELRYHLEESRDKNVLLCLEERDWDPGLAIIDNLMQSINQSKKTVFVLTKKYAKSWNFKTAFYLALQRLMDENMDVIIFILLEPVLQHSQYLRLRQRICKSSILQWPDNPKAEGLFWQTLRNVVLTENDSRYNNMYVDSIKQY
Method: as §1, §2

human TLR9 = biological target: T3, human TLR9 (Homo sapiens, UniProt Q9NR96); experiment: TLR9 inhibition reporter assay (HEK-Blue SEAP); conditions: HEK-Blue cells overexpressing human TLR9, ODN2006 5 nM, 22 hour incubation
T3 construct: host or cells: HEK-Blue cells (HEK293-derived reporter line)
T3 sequence (Q9NR96 26-1032): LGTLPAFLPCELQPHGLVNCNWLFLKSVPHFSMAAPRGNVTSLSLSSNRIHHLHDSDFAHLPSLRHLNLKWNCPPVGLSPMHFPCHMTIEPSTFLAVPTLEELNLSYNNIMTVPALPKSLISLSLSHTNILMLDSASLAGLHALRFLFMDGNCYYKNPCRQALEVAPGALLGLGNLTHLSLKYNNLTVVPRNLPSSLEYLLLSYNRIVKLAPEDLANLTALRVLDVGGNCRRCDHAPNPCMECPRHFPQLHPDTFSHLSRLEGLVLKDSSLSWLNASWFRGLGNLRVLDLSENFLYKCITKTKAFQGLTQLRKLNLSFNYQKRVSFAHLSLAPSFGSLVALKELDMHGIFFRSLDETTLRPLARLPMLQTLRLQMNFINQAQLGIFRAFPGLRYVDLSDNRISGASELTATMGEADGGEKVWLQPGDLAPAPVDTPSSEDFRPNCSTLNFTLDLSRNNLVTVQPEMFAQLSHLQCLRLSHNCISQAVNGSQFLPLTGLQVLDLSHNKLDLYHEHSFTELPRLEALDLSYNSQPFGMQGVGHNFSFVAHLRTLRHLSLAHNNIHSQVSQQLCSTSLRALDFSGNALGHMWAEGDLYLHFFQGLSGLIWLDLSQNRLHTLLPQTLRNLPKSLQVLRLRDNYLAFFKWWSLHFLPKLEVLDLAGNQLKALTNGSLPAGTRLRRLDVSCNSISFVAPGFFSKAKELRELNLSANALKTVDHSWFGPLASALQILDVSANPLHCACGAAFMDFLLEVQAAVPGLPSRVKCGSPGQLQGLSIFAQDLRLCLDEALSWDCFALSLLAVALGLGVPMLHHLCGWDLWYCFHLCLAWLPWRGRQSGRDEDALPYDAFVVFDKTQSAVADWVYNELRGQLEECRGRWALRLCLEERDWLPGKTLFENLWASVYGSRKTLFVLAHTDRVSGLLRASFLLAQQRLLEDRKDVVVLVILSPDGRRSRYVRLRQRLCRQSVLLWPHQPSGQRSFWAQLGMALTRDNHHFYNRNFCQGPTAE
Method: as §1, §2

Compound: COc1cc(-c2[nH]c3ccc(C4CCN(CCNC(=O)CCCCCCCCCCC(=O)NCCN5CCC(c6ccc7[nH]c(-c8cc(OC)c9ncnn9c8)c(C(C)C)c7c6)CC5)CC4)cc3c2C(C)C)cn2ncnc12 [Example 3, N1,N12-bis(2-(4-(3-isopropyl-2-(8-methoxy-[1,2,4]triazolo[1,5-a]pyridin-6-yl)-1H-indol-5-yl)piperidin-1-yl)ethyl)dodecanediamide]
IC50 (human TLR7): 0.31 nM
IC50 (human TLR8): 0.32 nM
IC50 (human TLR9): 99 nM

Compound: COc1cc(-c2[nH]c3ccc(C4CCN(CCNC(=O)CCC(=O)NCCN5CCC(c6ccc7[nH]c(-c8cc(OC)c9ncnn9c8)c(C(C)C)c7c6)CC5)CC4)cc3c2C(C)C)cn2ncnc12 [Example 11, N1,N4-bis(2-(4-(3-isopropyl-2-(8-methoxy-[1,2,4]triazolo[1,5-a]pyridin-6-yl)-1H-indol-5-yl)piperidin-1-yl)ethyl)succinamide]
IC50 (human TLR7): 17 nM
IC50 (human TLR8): 143 nM
IC50 (human TLR9): 4600 nM

Compound: N1,N12-bis(2-(4-(3-isopropyl-2-(8-methoxy-[1,2,4]triazolo[1,5-a]pyridin-6-yl)-1H-indol-5-yl)piperidin-1-yl)ethyl)dodecanediamide [Example 10]
IC50 (human TLR7): 1.3 nM
IC50 (human TLR8): 1.1 nM
IC50 (human TLR9): 44 nM

Compound: COc1cc(-c2[nH]c3ccc(C4CCN(CCNC(=O)CCCCCCCCC(=O)NCCN5CCC(c6ccc7[nH]c(-c8cc(OC)c9ncnn9c8)c(C(C)C)c7c6)CC5)CC4)cc3c2C(C)C)cn2ncnc12 [Example 7, N1,N10-bis(2-(4-(3-isopropyl-2-(8-methoxy-[1,2,4]triazolo[1,5-a]pyridin-6-yl)-1H-indol-5-yl)piperidin-1-yl)ethyl)decanediamide]
IC50 (human TLR7): 0.14 nM
IC50 (human TLR8): 0.24 nM
IC50 (human TLR9): 98 nM

Compound: COc1cc(-c2[nH]c3ccc(C4CCN(CCNC(=O)CCCCCCCCCCCCC(=O)NCCN5CCC(c6ccc7[nH]c(-c8cc(OC)c9ncnn9c8)c(C(C)C)c7c6)CC5)CC4)cc3c2C(C)C)cn2ncnc12 [Example 2, N1,N14-bis(2-(4-(3-isopropyl-2-(8-methoxy-[1,2,4]triazolo[1,5-a]pyridin-6-yl)-1H-indol-5-yl)piperidin-1-yl)ethyl)tetradecanediamide]
IC50 (human TLR7): 1.9 nM
IC50 (human TLR8): 1.6 nM
IC50 (human TLR9): 149 nM

More lines, in order of falling IC50 (human TLR7), values ahead:

IC50 (human TLR7): 0.95 nM
IC50 (human TLR8): 1.8 nM
IC50 (human TLR9): 3570 nM
Compound: COc1cc(-c2[nH]c3ccc(C4CCN(CCNC(C)=O)CC4)cc3c2C(C)C)cn2ncnc12 [Comparator Compound C5, N-(2-(4-(3-isopropyl-2-(8-methoxy-[1,2,4]triazolo[1,5-a]pyridin-6-yl)-1H-indol-5-yl)piperidin-1-yl)ethyl)acetamide, reference compound]

IC50 (human TLR7): 0.17 nM
IC50 (human TLR8): 0.2 nM
IC50 (human TLR9): 148 nM
Compound: COc1cc(-c2[nH]c3ccc(C4CCN(CCNC(=O)CCCCCCC(=O)NCCN5CCC(c6ccc7[nH]c(-c8cc(OC)c9ncnn9c8)c(C(C)C)c7c6)CC5)CC4)cc3c2C(C)C)cn2ncnc12 [Example 6, N1,N8-bis(2-(4-(3-isopropyl-2-(8-methoxy-[1,2,4]triazolo[1,5-a]pyridin-6-yl)-1H-indol-5-yl)piperidin-1-yl)ethyl)octanediamide]
